# In patent US11447485B2, “Class of bifunctional compounds with quanternary ammonium salt structure” (Beijing Showby Pharmaceutical Co., Ltd., priority 2016, dated 2022):
# Tests used:
# [1] = tested on: tracheal smooth muscle of guinea pig; test: Relaxation of CCh-induced constriction of isolated guinea pig tracheal smooth muscle (Experimental Example 1); settings: for Onset time (min) ± SD / Time for eliminating inhibition effect (min): CCh 3 × 10^−6 mol/L, in vitro; for EC50: Cavia porcellus, read-out: EC50 (μM) ± SD
# Method: The upper end was connected with a muscle tension transducer, and the specimen was given a resting tension of 1.0 g. Muscle tension changes were recorded, nutrient solution was changed every 20 min, and the experiment was started after 60 min of equilibrium.
# Administration Method: After the trachea flake were stabilized, 3×10^−6 mol/L CCh was added to the bath. […] Diastolic condition of the trachea flake was observed. If no response occurred (below the threshold concentration), the next dosage was continued to be added in the order. If any response occurred, the next dosage was added until its diastolic platform was reached. The above operation was repeated until the shrink curve reached the minimum. Finally, 10^−6 mol/L isoproterenol was added to establish maximum relaxation, and the curve was recorded.
# Statistical Methods: Statistics was performed using the Sigma Stat statistical software package, the data was analyzed by using the variance analysis. Student-Newman-Keuls (SNK) test was used in comparison among multiple sample averages number. The statistical test level was α=0.05 (bilateral).
# [2] = molecular target: T1, human recombinant β2 adrenoceptor (Homo sapiens, UniProt P07550); test: cell-based; format: cell-based; settings: EC50 (β1)/EC50 (β2)
# T1 construct: expressed in transfected cells
# T1 sequence (P07550 whole entry): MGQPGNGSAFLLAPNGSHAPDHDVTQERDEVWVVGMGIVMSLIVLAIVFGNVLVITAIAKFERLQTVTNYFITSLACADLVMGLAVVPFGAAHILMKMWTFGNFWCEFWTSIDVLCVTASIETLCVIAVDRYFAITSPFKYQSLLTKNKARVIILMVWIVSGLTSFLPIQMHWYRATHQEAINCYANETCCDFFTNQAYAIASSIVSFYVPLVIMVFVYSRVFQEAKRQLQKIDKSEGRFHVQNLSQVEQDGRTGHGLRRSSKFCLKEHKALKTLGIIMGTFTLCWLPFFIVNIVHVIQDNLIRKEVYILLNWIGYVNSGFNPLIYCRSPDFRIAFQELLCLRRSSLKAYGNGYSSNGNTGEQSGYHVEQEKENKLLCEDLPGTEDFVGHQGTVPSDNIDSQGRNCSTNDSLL
# [3] = tested on: bronchoconstriction response in the trachea of guinea pig induced by Mch; test: Bronchoconstriction induced by methacholine (Mch) in anaesthetized guinea pigs, airway dripping (Raw, Cdyn); settings: Mch 10 μg/kg iv; for Cdyn (ml/cmH2O) / Raw (cmH2O/ml/s): 30 min, Mean ± S.E.M
SMILES,Onset time (min) ± SD [1] [min],Time for eliminating inhibition effect (min) [1],EC50 [1] [µM],sel (β1/β2) [2],Cdyn (ml/cmH2O) ([3]; 0.1 μg/kg airway dripping),Raw (cmH2O/ml/s) ([3]; 0.1 μg/kg airway dripping),inhibitory rate of lung dynamic compliance decrease ([3]; 0.1 μg/kg airway dripping) [%],inhibitory rate on airway resistance increase ([3]; 0.1 μg/kg airway dripping) [%],Cdyn (ml/cmH2O) ([3]; 0.3 μg/kg airway dripping),Raw (cmH2O/ml/s) ([3]; 0.3 μg/kg airway dripping),inhibitory rate of lung dynamic compliance decrease ([3]; 0.3 μg/kg airway dripping) [%],inhibitory rate on airway resistance increase ([3]; 0.3 μg/kg airway dripping) [%],Cdyn (ml/cmH2O) ([3]; 1 μg/kg airway dripping),Raw (cmH2O/ml/s) ([3]; 1 μg/kg airway dripping),inhibitory rate of lung dynamic compliance decrease ([3]; 1 μg/kg airway dripping) [%],inhibitory rate on airway resistance increase ([3]; 1 μg/kg airway dripping) [%]
OCc1cc([C@@H](O)CNCCOCCCOCC[N+]23CCC(CC2)[C@@H](OC[C@@](O)(c2ccccc2)C2CCCC2)C3)ccc1O.[Br-] [Compound 48],6.32 ± 0.49,more than 300 min,0.0154 ± 0.012,423.8,0.115 ± 0.011,0.712 ± 0.065,32.2,66.2,0.139 ± 0.012,0.523 ± 0.032,48.9,88.3,0.207 ± 0.016,0.493 ± 0.071,50.1,91.6
COc1cc(C(C)NC[C@H](O)c2ccc(O)c(CO)c2)ccc1OCCC[N+]12CCC(CC1)[C@@H](OC[C@@](O)(c1ccccc1)C1CCCC1)C2.[Br-] (stereo partly drawn) [Compound 70],7.15 ± 0.31,more than 300 min,0.0183 ± 0.0087,379.8,0.218 ± 0.013,0.702 ± 0.098,34.2,69.6,0.357 ± 0.087,0.613 ± 0.107,47.8,86.5,0.345 ± 0.076,0.431 ± 0.095,49.3,92.1
CC(C)(Cc1ccc(OCC[N+]23CCC(CC2)[C@@H](OC[C@@](O)(c2ccccc2)C2CCCCC2)C3)cc1)NC[C@H](O)c1ccc(O)c(NC=O)c1.[Br-] [Compound 99],7.35 ± 0.33,more than 300 min,0.0172 ± 0.0072,389,0.120 ± 0.017,0.778 ± 0.073,35.0,73.5,0.158 ± 0.021,0.528 ± 0.082,48.8,86.8,0.223 ± 0.035,0.421 ± 0.069,49.7,91.9
O=C1COc2c(cc(O)cc2[C@@H](O)CNCCCc2ccc(OCCC[N+]34CCC(CC3)[C@@H](OC[C@@](O)(c3ccccc3)C3CCCC3)C4)cc2)N1 [Compound 104],6.67 ± 0.17,more than 300 min,0.0106 ± 0.0079,29.6,–,–,–,–,–,–,–,–,–,–,–,–
O=C1COc2c(cc(O)cc2[C@@H](O)CNCc2cc(Cl)c(OCCC[N+]34CCC(CC3)[C@@H](OC[C@@](O)(c3ccccc3)C3CCCC3)C4)c(Cl)c2)N1.[Br-] [Compound 106],6.26 ± 0.24,more than 300 min,0.0183 ± 0.0086,288.9,–,–,–,–,–,–,–,–,–,–,–,–
"OCc1cc([C@@H](O)CNCCOc2ccc(OCC[N+]34CCC(CC3)[C@@H](OC[C@@](O)(c3ccccc3)C3CCCC3)C4)cc2)ccc1O [Compound 114, (R)-(−)-3-[(R)-2-hydroxy-2-cyclopentyl-2-phenyl]ethoxy-1-{2-[4-(2-{(R)-[2-(3-hydroxymethyl-4-hydroxy)phenyl-2-hydroxy]ethylamino}ethyoxyl)phenoxy]ethyl}-1-azabicyclo[2,2,2]octylonium bromide]",6.24 ± 0.13,more than 300 min,–,98.9,–,–,–,–,–,–,–,–,–,–,–,–
"COc1cc(CNCC(O)c2ccc(O)c3[nH]c(=O)ccc23)c(Cl)cc1NC(=O)CC[N+]12CCC(CC1)C(OCC(O)(c1ccccc1)C1CCCC1)C2 [Compound 115, (R)-(−)-3-[(R)-2-hydroxy-2-cyclopentyl-2-phenyl]ethoxy-1-{3-[5-chloro-2-methoxy-4-({(R)-[2-hydroxy-2-(8-hydroxy-2-oxo-1,2-dihydroquinolin-5-yl)]ethylamino}methyl)anilino]oxopropyl}-1-azabicyclo[2,2,2]octylonium bromide]",6.82 ± 0.36,more than 300 min,0.0237 ± 0.01,85.5,–,–,–,–,–,–,–,–,–,–,–,–
"O=C(CC[N+]12CCC(CC1)[C@@H](OC[C@@](O)(c1ccccc1)C1CCCC1)C2)Nc1ccc(CNC[C@H](O)c2cc(O)cc3c2OCC(=O)N3)cc1 [Compound 116, (R)-(−)-3-[(R)-2-hydroxy-2-cyclopentyl-2-phenyl]ethoxy-1-{3-[4-({(R)-[2-hydroxy-2-(6-hydroxy-2H-1,4-benzoxazin-3(4H)-one-8-yl)]ethylamino}methyl)anilino]oxopropyl}-1-azabicyclo[2,2,2]octylonium bromide]",6.28 ± 0.56,more than 300 min,0.0267 ± 0.0072,68.8,–,–,–,–,–,–,–,–,–,–,–,–
"CC(NC[C@H](O)c1ccc(O)c(NC=O)c1)c1ccc(COCC[N+]23CCC(CC2)[C@@H](OC[C@@](O)(c2ccccc2)C2CCCC2)C3)cc1 (stereo partly drawn) [Compound 117, (R)-(−)-3-[(R)-2-hydroxy-2-cyclopentyl-2-phenyl]ethoxy-1-{2-[4-(2-{(R)-[2-hydroxy-2-(3-formamido-4-hydroxy)phenyl]ethylamino}ethylidene)benzyloxy]ethyl}-1-azabicyclo[2,2,2]octylonium bromide]",5.96 ± 0.21,more than 300 min,0.0217 ± 0.0081,39.8,–,–,–,–,–,–,–,–,–,–,–,–
"O=C1COc2c(cc(O)cc2[C@@H](O)CNCCOCc2ccc(COCC[N+]34CCC(CC3)[C@@H](OC[C@@](O)(c3ccccc3)C3CCCC3)C4)cc2)N1 [Compound 118, (R)-(−)-3-[(R)-2-hydroxy-2-cyclopentyl-2-phenyl]ethoxy-1-{2-[4-(2-{(R)-[2-hydroxy-2-(6-hydroxy-2H-1,4-benzoxazin-3(4H)-one-8-yl)]ethylamino}ethoxymethyl)benzyloxy]ethyl}-1-azabicyclo[2,2,2]octylonium bromide]",6.24 ± 0.41,more than 300 min,0.0241 ± 0.012,23.8,–,–,–,–,–,–,–,–,–,–,–,–
COc1cc(NC(=O)CC[N+]23CCC(CC2)[C@@H](OC[C@@](O)(c2ccccc2)C2CCCC2)C3)c(Cl)cc1CNC[C@H](O)c1ccc(O)c(NC=O)c1.[Br-] [Compound 138],6.56 ± 0.23,more than 300 min,0.0186 ± 0.0033,228.3,0.124 ± 0.019,0.687 ± 0.079,31.0,74.8,0.158 ± 0.036,0.508 ± 0.093,48.2,88.9,0.231 ± 0.022,0.418 ± 0.086,49.9,92.6
Cc1cc(CNC[C@H](O)c2ccc(O)c(NC=O)c2)ccc1NC(=O)CC[N+]12CCC(CC1)[C@@H](OC[C@@](O)(c1ccccc1)C1CCCC1)C2.[Br-] [Compound 140],6.18 ± 0.18,more than 300 min,0.0235 ± 0.0054,86.9,–,–,–,–,–,–,–,–,–,–,–,–
COC1CCC([C@@](O)(CO[C@H]2C[N+]3(CCC(=O)Nc4ccc(CNC[C@H](O)c5ccc(O)c(NC=O)c5)cc4)CCC2CC3)c2ccccc2)C1.[Br-] (stereo partly drawn) [Compound 141],5.88 ± 0.26,more than 300 min,0.0363 ± 0.0095,135.9,–,–,–,–,–,–,–,–,–,–,–,–
